Measured values reported in the OligoGym collection.
After the bases stand the sugars from the 5' end (letter, count) and the backbone: PS all phosphorothioate, else s phosphorothioate and o phosphodiester by linkage. Methylation of C is not given here. l = locked nucleic acid (LNA); d = 2'-deoxy (DNA)

Molecular target: SNHG14
Details: ASO
[1] = Mouse Primary Neuronal Cell, 0.005 µM

Sequence | target mRNA inhibition (Human Neuronal Cell, 7.5 µM) [%] | target mRNA inhibition (Human Neuronal Cell, 0.2 µM) [%] | target mRNA inhibition (Human Neuronal Cell, 1 µM) [%] | also measured
TACTCTGCAATACACCA (sugars l2 d10 l1 d2 l2, PS) | 61 |  |  | 
AAAATCTCAACTACCATTTT (sugars ldllddldddddddllddll, PS) | 5 |  |  | 
CTTTCCATTTATTTCCAT (sugars l3 d12 l3, PS) |  | 43 | 51 | 
AGTTCTACTATACTTTC (sugars l3 d11 l3, PS) | 57 |  |  | 
TTTATTTCCATTTATTTTCA (sugars lddddldddddddldlddll, PS) | 46 |  |  | 
AATTTTTTTCTTACTATCTT (sugars lldllldddddddddldlll, PS) | 57 |  |  | 
TGTTTCCATCTACTATTA (sugars ldldddddddddddldll, PS) | 61 |  |  | 
ACTGTTTATACCCTTTCC (sugars l1 d11 l1 d3 l2, PS) | 56 |  |  | 
ATATTGATTCAATTCCC (sugars l1 d3 l1 d8 l4, PS) | 67 |  |  | 
CCATTATTTCTTAAATA (sugars l4 d11 l2, PS) |  | -8 | 8 | 
GTTTCCATCTACTATTAA (sugars lllddlddddddldddll, PS) | 47 |  |  | 
TTACCTACATCTCATACT (sugars l2 d12 l4, PS) |  | -6 | -7 | target mRNA inhibition (Human Neuronal Cell, 5 µM): 16%; target mRNA inhibition [1]: 95.6%
AAATCTCAACTACCATTTTT (sugars lldlldldddddddldddll, PS) | 53 |  |  | 
CTCCTTTATGACTCCAA (sugars l4 d11 l2, PS) |  | 41 | 59 | 
CTCTAATCCTATTCCA (sugars l3 d10 l3, PS) |  | 50 | 58 | 
ATTGATTCAATTCCCTT (sugars l3 d10 l1 d1 l2, PS) | 70 |  |  | 
CAACATTATTAACCACCTTA (sugars l1 d2 l2 d13 l2, PS) | 47 |  |  | 
ACTCCTAAGAATTACA (sugars l4 d10 l2, PS) |  | 34 | 34 | 
CTCCATATTTAAATCC (sugars l4 d10 l2, PS) |  | 8 | 21 | 
ATAATCCCATACATCTA (sugars l3 d11 l3, PS) |  | 60 | 69 | 
ACCACCTAAGACCTCA (sugars l2 d11 l3, PS) |  | 45 | 44 | 
TATCTTTCCATTTATTTCC (sugars l1 d2 l1 d13 l2, PS) | 41 |  |  | 
TTTTAACCAGAGTGGCA (sugars l3 d11 l3, PS) | 56 |  |  | 

Sequence | target mRNA inhibition (Human Neuronal Cell, 7.5 µM) [%] | target mRNA inhibition (Human Neuronal Cell, 0.2 µM) [%] | target mRNA inhibition (Human Neuronal Cell, 1 µM) [%] | also measured
GCACATTCTTTCTATACC (sugars ldldlldddddddldlll, PS) | 51 |  |  | 
TAAAATTATTTATACACCA (sugars lllldlddddddllddlll, PS) | 31 |  |  | 
TCTTCAGCTTTCTAAAT (sugars l4 d11 l2, PS) |  | 5 | 24 | 
ATTGATTCAATTCCCTT (sugars lddldddddddlldlll, PS) | 61 |  |  | 
TGTATATAACTATTCC (sugars l4 d10 l2, PS) |  | 21 | 20 | 
GAATCTTCTAATTCCAC (sugars l2 d11 l4, PS) |  | 29 | 31 | 
AAACTTTCCCAACATTAT (sugars l2 d12 l4, PS) |  | 35 | 49 | 
CTAATCCTATTCCAAC (sugars l2 d10 l4, PS) |  | 33 | 49 | 
ATAAGCTTACCTCATA (sugars l2 d10 l4, PS) |  | 62 | 68 | 
CTAATGCAATAACCCA (sugars l2 d10 l4, PS) |  | 45 | 34 | 
ACTCTGCAATACACCAA (sugars ldddldddddddldlll, PS) | 66 |  |  | 
TTCCATTTATTTCCATTTAT (sugars ldldddldddddddldddll, PS) | 56 |  |  | 
ACTCTGCAATACACCAA (sugars l1 d1 l2 d10 l3, PS) | 63 |  |  | 
CTTTCCATTTATTTCCATTT (sugars l1 d13 l1 d3 l2, PS) | 35 |  |  | 
TCTTTCCATTTATTTCCATT (sugars l2 d3 l1 d12 l2, PS) | 47 |  |  | 
TTGATTCAATTCCCTTA (sugars l2 d11 l1 d1 l2, PS) | 60 |  |  | 
AAGATCATTCTCAACAAT (sugars lllldlddddddldllll, PS) | -6 |  |  | 
TTTATTTCCATTTATTTTCA (sugars lldldlddddddddldldll, PS) | 63 |  |  | 
TTTCCTATATTCTCTTA (sugars l4 d11 l2, PS) |  | 56 | 64 | 
ATTTACACTTAATTATACTT (sugars llddlllddddddlddllll, PS) | 38 |  |  | 
AGCATTCAACCCTAATC (sugars l4 d11 l2, PS) |  | 52 | 50 | 
CACATTATATTTAAACTAT (sugars l2 d13 l4, PS) |  | 6 | 14 | 
TCCTATGTTAATACTT (sugars l3 d10 l3, PS) |  | 14 | 34 | 

Sequence | target mRNA inhibition (Human Neuronal Cell, 7.5 µM) [%] | target mRNA inhibition (Human Neuronal Cell, 0.2 µM) [%] | target mRNA inhibition (Human Neuronal Cell, 1 µM) [%] | also measured
ACCTACATCTCATACT (sugars l2 d12 l2, PS) |  | -16 | 8 | target mRNA inhibition (Human Neuronal Cell, 5 µM): 0%; target mRNA inhibition [1]: 85.7%
AAATCTCAACTACCATTTTT (sugars ldddldlddddddldlddll, PS) | 41 |  |  | 
TATTGATTCAATTCCCT (sugars l3 d9 l2 d1 l2, PS) | 65 |  |  | 
GAAAATCTCAACTACCATT (sugars ldllldddddddlddllll, PS) | 57 |  |  | 
TACACTTAATTATACTTCCA (sugars lddldllddddddddlddll, PS) | 56 |  |  | 
CAAAGATCATTCTCAACA (sugars lllldldddddddlddll, PS) | 63 |  |  | 
TTGATTCAATTCCCTTA (sugars lldlddddddddlddll, PS) | 63 |  |  | 
CTGTATACACCATCCCA (sugars ldldlddddddddddll, PS) | 61 |  |  | 
TTTACACTTAATTATACTTC (sugars lldllddddddddldlllll, PS) | 29 |  |  | 
AAAATCTCAACTACCATTT (sugars lddddlddddddlllldll, PS) | 45 |  |  | 
GCTTTTAACCAGAGTGG (sugars l1 d12 l4, PS) | 73 |  |  | 
TACTCTGCAATACACC (sugars l2 d10 l4, PS) |  | 50 | 55 | 
TATTTGTCACCAAACC (sugars l3 d10 l3, PS) |  | 23 | -2 | 
TCTTTAAGCTTCCCAC (sugars l2 d10 l4, PS) |  | 34 | 44 | 
TACTCTGCAATACACCA (sugars ldlddddddddddldll, PS) | 64 |  |  | 
ACTGTTTATACCCTTTC (sugars l1 d2 l1 d9 l4, PS) | 45 |  |  | 
CTATTCAATAAACTAAACA (sugars l4 d13 l2, PS) |  | -6 | -9 | 
TTCTACTATACTTTCCTCT (sugars ldldddddddddddlddll, PS) | 59 |  |  | 
TTCTACTATACTTTCCTCT (sugars ldddlddddddddddldll, PS) | 53 |  |  | 
GTTCTACTATACTTTCCTC (sugars lddddldddddddddldll, PS) | 55 |  |  | 
CCTACATCTCATACTTGC (sugars l2 d13 l3, PS) |  |  |  | target mRNA inhibition [1]: 96.8%
TCTTATCCTTGAATTTC (sugars l4 d11 l2, PS) |  | 37 | 33 | 
TTATACCTTTCTTTAACCCT (sugars ldddddddddddddldldll, PS) | 58 |  |  | 

Sequence | target mRNA inhibition (Human Neuronal Cell, 7.5 µM) [%] | target mRNA inhibition (Human Neuronal Cell, 0.2 µM) [%] | target mRNA inhibition (Human Neuronal Cell, 1 µM) [%] | also measured
TTTTTTCTTACTATCTTCAA (sugars ldddddldddddddllddll, PS) | 43 |  |  | 
ATCCTGTTAATACCAT (sugars l2 d10 l4, PS) |  | 45 | 39 | 
ACCTACATCTCATACTT (sugars l2 d11 l4, PS) |  |  |  | target mRNA inhibition [1]: 94.2%
TTATAGCCATTCTATCT (sugars l3 d1 l1 d10 l2, PS) | 65 |  |  | 
TTTTTTTCTTACTATCTTCA (sugars l2 d3 l1 d12 l2, PS) | 14 |  |  | 
ACCACTGATTTCCTTA (sugars l2 d10 l4, PS) |  | 50 | 63 | 
ATTCAACCCTAATCAC (sugars l2 d10 l4, PS) |  | 16 | 26 | 
GTTTATACCCTTTCCAAT (sugars l1 d13 l4, PS) | 59 |  |  | 
TTTATCAATATCTTCTCAC (sugars lldlllddddddlddddll, PS) | 65 |  |  | 
AGCACATATACCATCA (sugars l4 d10 l2, PS) |  | 51 | 56 | 
GTTTCCATCTACTATTAA (sugars l3 d1 l1 d9 l4, PS) | 55 |  |  | 
TTTATCTCATGACCAC (sugars l2 d10 l4, PS) |  | 53 | 63 | 
ACTCTCACTGTAACTT (sugars l3 d10 l3, PS) |  | 36 | 44 | 
CAACATTATTAACCACCTTA (sugars lddddllddddddddlddll, PS) | 47 |  |  | 
TAATCCCATACATCTAT (sugars l2 d11 l4, PS) |  | 50 | 61 | 
TCCATTTATTTCCATTTATT (sugars ldlldddddddddlddddll, PS) | 46 |  |  | 
AATTATTTATACACCATCAT (sugars llllddldddddddldddll, PS) | 61 |  |  | 
TAAAATTATTTATACACCA (sugars lldlldddddddldldlll, PS) | 47 |  |  | 
AACATGTAATTTCCAT (sugars l2 d10 l4, PS) |  | 31 | 27 | 
CTCTGCAATACACCAA (sugars l2 d10 l4, PS) |  | 54 | 55 | 
